Data from PMC11189555, “Aryl amino acetamides prevent Plasmodium falciparum ring development via targeting the lipid-transfer protein PfSTART1” (Nature Communications, 2024).
Read-outs that look alike come from different tables or passages of the source.

Key:
[1] = test system: PopE-F10 M-833 resistant clone (PfSTART1 N330K); assay: Growth inhibition assay (72 h, LDH activity); type: cell-based, Plasmodium falciparum
Experimental: The drug was then removed, and parasites were allowed to recover. Another cycle of drug treatment (3 μM M-833) was then resumed. The resistant lines were cloned out by limiting dilution (diluting the culture into a 96-well plate to achieve an average of ~0.3 parasites per well), prior to growth inhibition assays and genomic DNA (gDNA) extraction (DNeasy Blood and Tissue kit (Qiagen)[18].
(§1) Parasite growth assays with inhibitory compounds were performed as per[11] and are fully described in the Supplementary Information. […]
(§2) Growth inhibition assays. Synchronised ring-stage parasites (0.3-0.6% parasitemia, 2% haematocrit) were grown for 72 h in a serial-dilution of the compound under […]
(§3) and compound 4. Note that M-833 was first purchased from MolPort (MolPort -002-267-916) then made in-house at WEHI: the differences observed in EC50s across experiments are attributed to the different batches of M -833. For some experiments, 0, 0.25 or 2.5 mM of glucosamine (GlcN) was also added. Experiments were set up in technical duplicates or triplicates. Following a freeze -thaw cycle, lactate dehydrogenase (LDH) activity was assessed as an indicator of parasite growt h 5. 30 μL of parasite culture was incubated for 30 min in the dark with 75 μL Malstat mixture (0.1 M Tris pH 9.0, 20 g/L lactic acid, pH 7.5, 0.2% Triton-X100, 0.5 g/L acetylpyridine adenine dinucleotide (APAD, Sigma), 200 μg/mL nitroblue tetrazolium (NBT; Sigma), 1 μg/mL phenozine ethosulfate (PES; Sigma)). Absorbance was then measured at 650 nm, transformed using the formula below, plotted against the logarithm of the concentrations, and a non-linear regression (log(inhibitor) vs. response, variable slope) was calculated using GraphPad Prism to assess the half-inhibitory […]
(§4) Growth inhibition % = (1 − average(sample)− average(uRBC)) ∗ 100 […]
(§5) The DMSO samples were also used to assess growth of parasite in the presence of 0.25 and 2.5 mM GlcN (normalised by DMSO in 0 mM GlcN). […]

[2] = test system: 3D7 P. falciparum parasites; assay: Growth inhibition assay (72 h, LDH activity); type: cell-based, Plasmodium falciparum; details: for EC50: Plasmodium falciparum
Experimental: as §1, §2, §3, §4, §5

Compound: CC(C)(Oc1ccc(Cl)c(S(=O)(=O)N2CCOCC2)c1)C(=O)Nc1ccc(F)c(Cl)c1 [compound 3]
- EC50 ([1]; Plasmodium falciparum, 72 h, Supplementary Table 1, PopE-F10 (N330K)): 3.25 µM
- resistance of the line compared with 3D7 ([1]; PopE-F10 (N330K), Fig 4B): highly resistant
- (av-uRBC) / (DMSO-uRBC) x100 ([1]; PopE-F10, 3.04832 nM, biological replicate 1): 115.115
- (av-uRBC) / (DMSO-uRBC) x100 ([1]; PopE-F10, 3.04832 nM, biological replicate 2): 108.442
- (av-uRBC) / (DMSO-uRBC) x100 ([1]; PopE-F10, 3.04832 nM, biological replicate 3): 119.048
- (av-uRBC) / (DMSO-uRBC) x100 ([1]; PopE-F10, 9.14495 nM, biological replicate 1): 115.06
- (av-uRBC) / (DMSO-uRBC) x100 ([1]; PopE-F10, 9.14495 nM, biological replicate 2): 109.174
- (av-uRBC) / (DMSO-uRBC) x100 ([1]; PopE-F10, 9.14495 nM, biological replicate 3): 119.013
- (av-uRBC) / (DMSO-uRBC) x100 ([1]; PopE-F10, 27.4348 nM, biological replicate 1): 115.16
- (av-uRBC) / (DMSO-uRBC) x100 ([1]; PopE-F10, 27.4348 nM, biological replicate 2): 107.726
- (av-uRBC) / (DMSO-uRBC) x100 ([1]; PopE-F10, 27.4348 nM, biological replicate 3): 110.78
- (av-uRBC) / (DMSO-uRBC) x100 ([1]; PopE-F10, 82.3045 nM, biological replicate 1): 115.437
- (av-uRBC) / (DMSO-uRBC) x100 ([1]; PopE-F10, 82.3045 nM, biological replicate 2): 107.232
- (av-uRBC) / (DMSO-uRBC) x100 ([1]; PopE-F10, 82.3045 nM, biological replicate 3): 123.007
- (av-uRBC) / (DMSO-uRBC) x100 ([1]; PopE-F10, 246.914 nM, biological replicate 1): 112.345
- (av-uRBC) / (DMSO-uRBC) x100 ([1]; PopE-F10, 246.914 nM, biological replicate 2): 106.543
- (av-uRBC) / (DMSO-uRBC) x100 ([1]; PopE-F10, 246.914 nM, biological replicate 3): 116.449
- (av-uRBC) / (DMSO-uRBC) x100 ([1]; PopE-F10, 740.741 nM, biological replicate 1): 107.602
- (av-uRBC) / (DMSO-uRBC) x100 ([1]; PopE-F10, 740.741 nM, biological replicate 2): 102.914
- (av-uRBC) / (DMSO-uRBC) x100 ([1]; PopE-F10, 740.741 nM, biological replicate 3): 98.1859
- (av-uRBC) / (DMSO-uRBC) x100 ([1]; PopE-F10, 2222.22 nM, biological replicate 1): 85.8267
- (av-uRBC) / (DMSO-uRBC) x100 ([1]; PopE-F10, 2222.22 nM, biological replicate 2): 84.9625
- (av-uRBC) / (DMSO-uRBC) x100 ([1]; PopE-F10, 2222.22 nM, biological replicate 3): 59.2883
- (av-uRBC) / (DMSO-uRBC) x100 ([1]; PopE-F10, 6666.67 nM, biological replicate 1): 37.9433
- (av-uRBC) / (DMSO-uRBC) x100 ([1]; PopE-F10, 6666.67 nM, biological replicate 2): 28.6269
- (av-uRBC) / (DMSO-uRBC) x100 ([1]; PopE-F10, 6666.67 nM, biological replicate 3): 13.3438
- (av-uRBC) / (DMSO-uRBC) x100 ([1]; PopE-F10, 20000 nM, biological replicate 1): 11.6135
- (av-uRBC) / (DMSO-uRBC) x100 ([1]; PopE-F10, 20000 nM, biological replicate 2): 7.135
- (av-uRBC) / (DMSO-uRBC) x100 ([1]; PopE-F10, 20000 nM, biological replicate 3): 4.744
- Fold change compared to 3D7 ([1]; Supplementary Table 1, EC50 on PopE-F10 vs 3D7): 203 fold
- (av-uRBC) / (DMSO-uRBC) x100 ([2]; 3D7, conc. 3.04832 nM, Biological replicate 1 (2021-10-25)): 98.9546
- (av-uRBC) / (DMSO-uRBC) x100 ([2]; 3D7, conc. 3.04832 nM, Biological replicate 2 (2021-11-03)): 99.5733
- (av-uRBC) / (DMSO-uRBC) x100 ([2]; 3D7, conc. 3.04832 nM, Biological replicate 3 (2021-11-11)): 55.9066
- (av-uRBC) / (DMSO-uRBC) x100 ([2]; 3D7, conc. 9.14495 nM, Biological replicate 1 (2021-10-25)): 81.8447
- (av-uRBC) / (DMSO-uRBC) x100 ([2]; 3D7, conc. 9.14495 nM, Biological replicate 2 (2021-11-03)): 87.421
- (av-uRBC) / (DMSO-uRBC) x100 ([2]; 3D7, conc. 9.14495 nM, Biological replicate 3 (2021-11-11)): 38.3092
- (av-uRBC) / (DMSO-uRBC) x100 ([2]; 3D7, conc. 27.4348 nM, Biological replicate 1 (2021-10-25)): 30.9131
- (av-uRBC) / (DMSO-uRBC) x100 ([2]; 3D7, conc. 27.4348 nM, Biological replicate 2 (2021-11-03)): 28.899
- (av-uRBC) / (DMSO-uRBC) x100 ([2]; 3D7, conc. 27.4348 nM, Biological replicate 3 (2021-11-11)): 16.2848
- (av-uRBC) / (DMSO-uRBC) x100 ([2]; 3D7, conc. 82.3045 nM, Biological replicate 1 (2021-10-25)): 11.7409
- (av-uRBC) / (DMSO-uRBC) x100 ([2]; 3D7, conc. 82.3045 nM, Biological replicate 2 (2021-11-03)): 11.9543
- (av-uRBC) / (DMSO-uRBC) x100 ([2]; 3D7, conc. 82.3045 nM, Biological replicate 3 (2021-11-11)): 7.809
- (av-uRBC) / (DMSO-uRBC) x100 ([2]; 3D7, conc. 246.914 nM, Biological replicate 1 (2021-10-25)): 8.8892
- (av-uRBC) / (DMSO-uRBC) x100 ([2]; 3D7, conc. 246.914 nM, Biological replicate 2 (2021-11-03)): 10.72
- (av-uRBC) / (DMSO-uRBC) x100 ([2]; 3D7, conc. 246.914 nM, Biological replicate 3 (2021-11-11)): 6.2069
- (av-uRBC) / (DMSO-uRBC) x100 ([2]; 3D7, conc. 740.741 nM, Biological replicate 1 (2021-10-25)): 8.477
- (av-uRBC) / (DMSO-uRBC) x100 ([2]; 3D7, conc. 740.741 nM, Biological replicate 2 (2021-11-03)): 10.3467
- (av-uRBC) / (DMSO-uRBC) x100 ([2]; 3D7, conc. 740.741 nM, Biological replicate 3 (2021-11-11)): 4.271
- (av-uRBC) / (DMSO-uRBC) x100 ([2]; 3D7, conc. 2222.22 nM, Biological replicate 1 (2021-10-25)): 8.256
- (av-uRBC) / (DMSO-uRBC) x100 ([2]; 3D7, conc. 2222.22 nM, Biological replicate 2 (2021-11-03)): 10.0343
- (av-uRBC) / (DMSO-uRBC) x100 ([2]; 3D7, conc. 2222.22 nM, Biological replicate 3 (2021-11-11)): 3.637
- (av-uRBC) / (DMSO-uRBC) x100 ([2]; 3D7, conc. 6666.67 nM, Biological replicate 1 (2021-10-25)): 8.6332
- (av-uRBC) / (DMSO-uRBC) x100 ([2]; 3D7, conc. 6666.67 nM, Biological replicate 2 (2021-11-03)): 8.244
- (av-uRBC) / (DMSO-uRBC) x100 ([2]; 3D7, conc. 6666.67 nM, Biological replicate 3 (2021-11-11)): 2.725
- (av-uRBC) / (DMSO-uRBC) x100 ([2]; 3D7, conc. 20000 nM, Biological replicate 1 (2021-10-25)): 7.467
- (av-uRBC) / (DMSO-uRBC) x100 ([2]; 3D7, conc. 20000 nM, Biological replicate 2 (2021-11-03)): 5.95
- (av-uRBC) / (DMSO-uRBC) x100 ([2]; 3D7, conc. 20000 nM, Biological replicate 3 (2021-11-11)): -1.791
- improvement in antiparasitic activity relative to the activity of M-833 ([2]; EC50 based): 10 fold
- EC50 ([2]; 3D7, 72 h, Supplementary Table 1, 3D7, 72 h, read-out: EC50): 0.016 µM
- EC50 ([2]; 3D7, Fig 4A, 3D7 parasites, read-out: Pf 3D7 EC50 (SD)): 0.15 µM
- EC50 ([2]; 3D7, text on structure activity relationship (Fig 4A), read-out: EC50, antiparasitic activity): 0.12 µM
